Measurements taken from patent US7592373B2 (Boehringer Ingelheim International GmbH, priority 2003, dated 2009).

melting point | Structure (SMILES)
164 to 165 °C | O=C(C#Cc1ccc(CN2CCC(O)CC2)cc1)Nc1ccc(-c2ccc(Cl)cc2)cc1F [Example 1.21, 3-[4-(4-hydroxypiperidin-1-ylmethyl)phenyl]propynoic acid-(4′-chloro-3-fluorobiphenyl-4-yl)amide]
194 to 195 °C | CC(C)(O)C1CCN(Cc2ccc(C#CC(=O)Nc3ccc(-c4ccc(Cl)cc4)cc3)cc2)CC1 [Example 1.34, 3-{4-[4-(1-hydroxy-1-methylethyl)piperidin-1-ylmethyl]phenyl}propynoic acid-(4′-chlorobiphenyl-4-yl)amide]
145 to 146 °C | COC1CCN(Cc2ccc(C#CC(=O)Nc3ccc(-c4ccc(Cl)cc4)cc3)cc2)CC1 [Example 1.36, 3-[4-(4-methoxypiperidin-1-ylmethyl)phenyl]propynoic acid-(4′-chlorobiphenyl-4-yl)amide]
192 to 193 °C | CC1(O)CCN(Cc2ccc(C#CC(=O)Nc3ccc(-c4ccc(Cl)cc4)cc3)cc2)CC1 [Example 1.37, 3-[4-(4-hydroxy-4-methylpiperidin-1-ylmethyl)phenyl]propynoic acid-(4′-chlorobiphenyl-4-yl)amide]
191 to 192 °C | O=C(C#Cc1ccc(CN2CCC(N3CCCC3)CC2)cc1)Nc1ccc(-c2ccc(Cl)cc2)cc1 [Example 1.38]
179.5 °C | O=C(C#Cc1ccc(CN2CCCCC2)cc1)Nc1ccc(-c2ccc(Cl)cc2)cc1 [Example 1.39, 3-(4-piperidin-1-ylemthylphenyl)propynoic acid-(4′-chlorobiphenyl-4-yl)amide]
181 °C | CN(Cc1ccc(C#CC(=O)Nc2ccc(-c3ccc(Cl)cc3)cc2)cc1)CC1CC1 [Example 1.40]
156 to 157 °C | O=C(C#Cc1ccc(CNCCC2CCCCC2)cc1)Nc1ccc(-c2ccc(Cl)cc2)cc1 [Example 1.52, 3-{4-[(cyclohexylethylamino)methyl]phenyl}propynoic acid-(4′-chlorobiphenyl-4-yl)amide]
217 to 218 °C | CN(Cc1ccc(C#CC(=O)Nc2ccc(-c3ccc(Cl)cc3)cc2)cc1)Cc1ccccn1 [Example 1.58]
128 to 129 °C | CC1CCN(C2(c3ccc(C#CC(=O)Nc4ccc(-c5ccc(Cl)cc5)cc4)cc3)CC2)CC1 [Example 1.424, 3-{4-[1-(4-methylpiperidin-1-yl)cyclopropyl]phenyl}propynoic acid(4′-chlorobiphenyl-4-yl)amide]
217 to 219 °C | CN(Cc1ccc(C#CC(=O)Nc2ccc(-c3ccc(Cl)cc3)cc2)cc1)C1CCCC1 [Example 1.425]
180 to 189 °C | O=C(C#Cc1ccc(CCN2CCCC2)cc1)Nc1ccc(-c2ccccc2)cc1 [Example 2.1, 3-[4-(2-pyrrolidin-1-ylethyl)phenyl]propynoic Acid biphenyl-4-ylamide]
153 to 154 °C | O=C(C#Cc1ccc(CCN2CCCC2)cc1)Nc1ccc(Cl)cc1 [Example 2.2, 3-[4-(2-pyrrolidin-1-ylethyl)phenyl]propynoic acid-4-chlorophenylamide]
217 to 218 °C | O=C(C#Cc1ccc(CCN2CCCC2)cc1)Nc1ccc(-c2ccc(Cl)cc2)cc1 [Example 2.4, 3-[4-(2-pyrrolidin-1-ylethyl)phenyl]propynoic acid-(4′-chlorobiphenyl-4-yl)amide]
198 to 199 °C | CC#Cc1ccc(NC(=O)C#Cc2ccc(CCN3CCCC3)cc2)cc1 [Example 2.5, 3-[4-(2-pyrrolidin-1-ylethyl)phenyl]propynoic acid-(4-prop-1-ynylphenyl)amide]
107 to 109 °C | CCN(CC)CCOc1ccc(NC(=O)C#Cc2ccc(Cl)cc2Cl)cc1 [Example 3.4, 3-(2,4-dichlorophenyl)propynoic acid-[4-(2-diethylaminoethoxy)phenyl]amide]
182 to 185 °C | CN1CCN(Cc2ccc(NC(=O)C#Cc3ccc(-c4ccc(Cl)cc4)cc3)cc2)CC1 [Example 3.8, 3-(4′-chlorobiphenyl-4-yl)propynoic acid-[4-(4-methylpiperazin-1-ylmethyl)phenyl]amide]
158 to 163 °C | CC1CCCC(C)N1Cc1ccc(NC(=O)C#Cc2ccc(-c3ccc(Cl)cc3)cc2)cc1 (stereo not shown) [Example 3.9, 3-(4′-chlorobiphenyl-4-yl)propynoic acid-[4-(2,6-dimethylpiperidin-1-ylmethyl)phenyl]amide]
130 to 133 °C | COCCN(C)Cc1ccc(NC(=O)C#Cc2ccc(-c3ccc(Cl)cc3)cc2)cc1 [Example 3.11, 3-(4′-chlorobiphenyl-4-yl)propynoic acid-(4-{[(2-methoxyethyl)methylamino]methyl}phenyl)amide]
209 to 214 °C | CC1CC(C)CN(Cc2ccc(NC(=O)C#Cc3ccc(-c4ccc(Cl)cc4)cc3)cc2)C1 (stereo not shown) [Example 3.12, 3-(4′-chlorobiphenyl-4-yl)propynoic acid-[4-(3,5-dimethylpiperidin-1-ylmethyl)phenyl]amide]

melting point | Structure (SMILES)
227 to 234 °C | COC1CCN(Cc2ccc(NC(=O)C#Cc3ccc(-c4ccc(Cl)cc4)cc3)cc2)CC1 [Example 3.13, 3-(4′-chlorobiphenyl-4-yl)propynoic acid-[4-(4-methoxypiperidin-1-ylmethyl)phenyl]amide]
263 to 268 °C | CC1CCN(Cc2ccc(NC(=O)C#Cc3ccc(-c4ccc(Cl)cc4)cc3)cc2)CC1 [Example 3.14, 3-(4′-chlorobiphenyl-4-yl)propynoic acid-[4-(4-methylpiperidin-1-ylmethyl)phenyl]amide]
164 to 167 °C | CN(Cc1ccc(NC(=O)C#Cc2ccc(-c3ccc(Cl)cc3)cc2)cc1)CC1CC1 [Example 3.15, 3-(4′-chlorobiphenyl-4-yl)propynoic acid-{4-[(cyclopropylmethylmethylamino)methyl]phenyl}amide]
194 to 200 °C | O=C(C#Cc1ccc(-c2ccc(Cl)cc2)cc1)Nc1ccc(CN2CCC(O)(C(F)(F)F)CC2)cc1 [Example 3.17, 3-(4′-chlorobiphenyl-4-yl)propynoic acid-[4-(4-hydroxy-4-trifluoromethylpiperidin-1-ylmethyl)phenyl]amide]
243 to 247 °C | O=C(C#Cc1ccc(-c2ccc(Cl)cc2)cc1)Nc1ccc(CN2CCC(O)CC2)cc1 [Example 3.18, 3-(4′-chlorobiphenyl-4-yl)propynoic acid-[4-(4-hydroxy-1-piperidin-1-ylmethyl)phenyl]amide]
224 to 227 °C | O=C(C#Cc1ccc(-c2ccc(Cl)cc2)cc1)Nc1ccc2c(ccn2CCN2CCCC2)c1 [Example 3.19, 3-(4′-chlorobiphenyl-4-yl)propynoic acid-[1-(2-pyrrolidin-1-ylethyl)-1H-indol-5-yl]amide]
277 to 281 °C | O=C(C#Cc1ccc(-c2ccc(Cl)cc2)cc1)Nc1ccc(CN2CCCCC2)c(Cl)c1 [Example 3.20, 3-(4′-chlorobiphenyl-4-yl)propynoic acid-(3-chloro-4-piperidin-1-ylmethylphenyl)amide]
195 to 197 °C | CC1CC(C)CN(Cc2ccc(NC(=O)C#Cc3ccc(-c4ccc(Cl)cc4)cn3)cc2)C1 (stereo not shown) [Example 3.29, 3-[5-(4-chlorophenyl)pyridin-2-yl]propynoic acid-[4-(3,5-dimethylpiperidin-1-ylmethyl)phenyl]amide]
145 to 150 °C | CCN(CC)CCc1ccc(NC(=O)C#Cc2ccc(C(F)(F)F)cc2Cl)cc1 [Example 3.35, 3-(2-chloro-4-trifluoromethylphenyl)propynoic acid-[4-(2-diethylaminoethyl)phenyl]amide]
194 to 197 °C | CCN(CC)CCOc1ccc(NC(=O)C#Cc2ccc(C(F)(F)F)cc2Cl)cc1 [Example 3.38, 3-(2-chloro-4-trifluoromethylphenyl)propynoic acid-[4-(2-diethylaminoethoxy)phenyl]amide]
135 to 138 °C | CCN(CC)CCOc1ccc(N(C)C(=O)C#Cc2ccc(C(F)(F)F)cc2Cl)cc1 [Example 3.39]
120 to 125 °C | O=C(C#Cc1ccc(C(F)(F)F)cc1Cl)Nc1ccc(OCCn2cccn2)cc1 [Example 3.43, 3-(2-chloro-4-trifluoromethylphenyl)propynoic acid-[4-(2-pyrazol-1-ylethoxy)phenyl]amide]
223 to 227 °C | O=C(C#Cc1ccc(C(F)(F)F)cc1Cl)Nc1ccc(OCCn2cnnc2)cc1 [Example 3.44, 3-(2-chloro-4-trifluoromethylphenyl)propynoic acid-[4-(2-[1.2.4]triazol-4-ylethoxy)phenyl]amide]
186 to 190 °C | O=C(C#Cc1ccc(-c2ccc(Cl)cc2)cn1)Nc1ccc(CN2CCC(O)CC2)cc1 [Example 3.168, 3-[5-(4-chlorophenyl)pyridin-2-yl]propynoic acid-[4-(4-hydroxypiperidin-1-ylmethyl)phenyl]amide]
98 to 100 °C | CCN(CC)CCOc1ccc(NC(=O)C#Cc2ccc(Cl)cc2Cl)cc1Cl [Example 4.1, 3-(2,4-dichlorophenyl)propynoic acid-[3-chloro-4-(2-diethylaminoethoxy)phenyl]amide]
105 to 108 °C | CCN(CC)CCOc1ccc(NC(=O)C#Cc2ccc(-c3ccccc3)cc2)cc1Cl [Example 4.4, 3-biphenyl-4-ylpropynoic acid-[3-chloro-4-(2-diethylaminoethoxy)phenyl]amide]
135 to 144 °C | O=C(C#Cc1ccc(Cl)cc1)Nc1ccc2c(ccn2CCN2CCCC2)c1 [Example 4.9, 3-(4-chlorophenyl)propynoic acid-[1-(2-pyrrolidin-1-ylethyl)-1H-indol-5-yl]amide]
200 to 205 °C | O=C(C#Cc1ccc(C(F)(F)F)cc1Cl)Nc1ccc2c(ccn2CCN2CCCC2)c1 [Example 4.11, 3-(2-chloro-4-trifluoromethylphenyl)propynoic acid-[1-(2-pyrrolidin-1-ylethyl)-1H-indol-5-yl]amide]
130 °C | O=C(C#Cc1ccc(Cl)cc1Cl)Nc1ccc2oc(CCN3CCCC3)nc2c1 [Example 4.12, 3-(2,4-dichlorophenyl)propynoic acid-[2-(2-pyrrolidin-1-ylethyl)benzoxazol-5-yl]amide]
127 to 130 °C | CCN(CC)CCOc1ccc(NC(=O)C#Cc2ccc(C(F)(F)F)cc2Cl)cc1N [Example 4.22, 3-(2-chloro-4-trifluoromethylphenyl)propynoic acid-[3-amino-4-(2-diethylaminoethoxy)phenyl]amide]
